Data from patent US20080219962A1, “Method to Enhance the Bone Formation Activity of Bmp by Runx2 Acetylation” (BIORUNX CO., LTD., priority 2005, published 2008).
Numbered stars: 1 amine (or outer) side, 2 acyl side, 3 side chain; on linkers, the order of the positions; unused ones are H or OH. Bridge positions count the residues as written; N and C are the ends. Square brackets hold non-standard residues; d marks the D form. Peptide text beside a SMILES is read from it. I, II: the chains in the order shown. ξ: configuration not given here. hNle(7-SH) = O=C([C@H](CCCCCS[*:3])N[*:1])[*:2]; Ile(3ξ) = CCC(C)[C@H](N)C(=O)O

Key:
Runx2 = Runx2 acetylation: immunoprecipitation with anti-acetyl-lysine antibody, Western blot with anti-myc antibody; type: cell-based; conditions: C2C12 cells transfected with myc-tagged Runx2, treated with HDAC inhibitor; FIG. 13
Method: Following transfection, the C2C12 and 293 cells were lysed in ice-cold cell lysis buffer (25 mM HEPES (pH 7.5), 150 mM NaCl, 1% NP-40, 0.25% Na deoxycholate, 10% glycerol, 25 mM NaF, 1 mM EDTA, 1 mM Na3VO4, 250 μM phenylmethylsulfonyl fluoride, 10 μg/ml leupeptin, 10 μg/ml aprotinin) and cleared by centrifugation. The resulting supernatants were immunoprecipitated with the appropriate primary and secondary antibodies, and protein A- or protein G-Sepharose beads (Amersham) for 4 hours. All incubations were conducted at 4° C. The Sepharose beads were washed extensively and bound proteins were separated using SDS-PAGE, and then transferred to PVDF membranes. The membranes were incubated with the appropriate antibodies, washed, and then incubated with horseradish peroxidase-coupled secondary antibodies. After washing, the reactive proteins were visualized with an enhanced chemiluminescence (ECL) reagent (Amersham Biosciences).
For HDAC inhibitor treatments, both C2C12 and 293 cells were cultured in fresh medium for 1 day following transfection, and then treated with the inhibitors (Tricostatin A (TSA), CHAP and SCOP) for 16 h, at the specified concentrations according to the methods of Komatsu et al (Cancer Res. 61:4459-4466, 2001) and Nishino et al (Nishino N. et al., Org. Lett. 5: 5079-5082, 2003).
The level of Runx2 acetylation might be controlled by a dynamic equilibrium between acetylation and deacetylation. […] In the present invention, inhibitors of histone diacetylase (HDAC) deacetylating most proteins were treated to Runx2. Particularly, C2C12 cells, transfected with myc-tagged Runx2, were treated with HDAC inhibitors such as SCOP304, SCOP152, CHAP27, SAHA, MS-275, FK228, TrafoxinB and Oxamflatin according to the method of Komatsu et al (Cancer Res. 61:4459-4466, 2001). Immunoprecipitation was performed using anti-acetyl-lysine antibody, followed by Western blot analysis using anti-myc antibody.

[1] = tested on: C2C12 pluripotent mesenchymal precursor cells; assay: Alkaline phosphatase (ALP) activity staining, early marker of osteoblast differentiation; type: cell-based; conditions: increasing inhibitor concentration in presence of low concentration of BMP-2 (30 ng/ml), FIG. 18
Method: Particularly, C2C12 pluripotent mesenchymal precursor cells were treated with each HDAC inhibitor and then fixed with 3.7% formaldehyde for 10 minutes, to which western blue substrate (Promega) was added to induce color development for 10 minutes. And alkaline phosphatase (ALP) activity, an early marker of osteoblast differentiation was measured by the active staining method (Katagiri et al., J. Cell Biol. Vol. 127, 1755-66, 1994). As a result, the treatment of HDAC inhibitors such as TSA, SAHA, MS-275, FK228, Oxamflatin, CHAP27, SCOP152, SCOP304 and SCOP402 caused increase of ALP activity (FIG. 18).

[2] = tested on: Runx2 transcriptional activity; assay: pGL3-TβRE-luc luciferase reporter assay in 293 cells over-expressing Runx2; type: cell-based; conditions: 293 cells over-expressing Runx2 and pGL3-TβRE-luc reporter; FIG. 16
Method: (§1) For luciferase assay, cells were plated on a 24-well plate one day before transfection, followed by co-transfection with luciferase reporter plasmid and numbers of Runx2 constructs. 36 hours after transfection, cells were recovered and luciferase and β-galactosidase activities were measured in cell lysate by using Luciferase Reporter Assay Kit (Promega) using luminometer according to the manufacturer's recommendations. The pCMVβ-Gal (beta-Galactosidase, Clontech Laboratory) plasmid was included as an internal control to determine the efficiency of transfection.
To examine whether HDAC inhibitors, increasing the level of Runx2 acetylation, could promote the Runx2 transcriptional activity, 293 cells over-expressing Runx2 and pGL3-TβRE-luc reporter were treated with each HDAC inhibitor. The transcriptional activity of Runx2 was evaluated by luciferase report assay, which was performed according to the manufacturer (Promega)'s instructions. As a result, HDAC inhibitors, Tubacin, SAHA, MS-275, Trafoxin B, Oxamflatin, CHAP27, CHAP31, SCOP152, SCOP304 and SCOP402, increased transcriptional activity of Runx2 (FIG. 16). From the result, it was confirmed that HDAC inhibitors not only increase the level of Runx2 acetylation but also increase the Runx2 transcriptional activity.

OC promoter = assay: Osteocalcin (OC) promoter luciferase reporter assay in H1-127-21-2 cells; type: cell-based, mouse; conditions: H1-127-21-2 cells over-expressing pCS4-3Myc-Runx and pGL2-1050 OC-luc; FIG. 19
Source text: Full-length Runx2 (SEQ. ID. No 2) labeled with Myc or HA was inserted into a vector to construct CMV promoter-derived mammalian expression vectors pCS4-3Myc and pCS4-3HA (Jin et al., J Biol Chem. Vol. 279, 29409-17, 2004, Ogawa et al., Proc Natl Acad Sci USA. 1993 Vol. 90, 6859-63.). Mutations affecting the Runx2 acetylation site were introduced by PCR (Michaels A. Innis et al., PCR protocols: a guide to method and applications, Qcademic Press, Inc., 1990) and cloned into the pCS4-3Myc vector. The BMP receptor 1 (BMPR1) and HA-p300 expression vectors were obtained from M. Ewen (Dana-Farber Cancer Institute, Harvard Medical School, Boston) (Genes Dev. Vol. 8, 869-84, 1994). The expression plasmids for the myc-HDAC series were cloned into pCS4-3Myc. The luciferase reporter plasmid, pGL3-TbRE, contains two copies of TbRE (originally identified in the immunoglobulin Cα promoter) (Lee, K. S., et al., Mol. Cell. Biol. 20:8783-8792, 2000; pGL3 is product of Promega). […]
as §1, with “The pCMVβ-Gal (beta-Galactosidase, Clontech Laboratory) plasmid was included as an internal control to determine the efficiency of transfection.” left out

[3] = tested on: periosteal bone formation; assay: Periosteal bone formation after hypodermic injection into mice calvarias, H&E histostaining; type: in vivo; conditions: 10 μl of 60 μM injected hypodermically into calvarias, two weeks, FIG. 22
Method: To confirm the effect of HDAC inhibitors on bone formation, the present inventors investigated the effect of CHAP27, SCOP402 and SCOP304 on periosteal bone formation in rodent. Particularly, 10 μl of HDAC inhibitors (60 μM) were hypodermically injected into mice calvarias (Zhao et al., J. Biol. Chem., 279, 12854-12859, 2004). Two weeks later, the mice were sacrificed, followed by hematoxyline & eosine histostaining (Cell Biology. Second edition, Edited by Julio E. Celis. Published by Academic Press, 1994).

C/C=C1\NC(=O)[C@H]2CSSCC/C=C/[C@H](CC(=O)N[C@H](C(C)C)C(=O)N2)OC(=O)[C@H](C(C)C)NC1=O [FK228]
Runx2 acetylation (Runx2): increased
ALP activity [1]: increase

Nc1ccccc1NC(=O)c1ccc(CNC(=O)OCc2cccnc2)cc1 [MS-275, carbamate, [[4-[[(2-aminophenyl)amino]carbonyl]phenyl]methyl]-, 3-pyridinemethyl ester]
Runx2 acetylation (Runx2): increased
transcriptional activity of Runx2 (luciferase reporter) [2]: increased
ALP activity [1]: increase

O=C(CCCCCCC(=O)Nc1ccccc1)NO [SAHA, octanediamide, N-hydroxy-N′-phenyl-]
Runx2 acetylation (Runx2): increased
transcriptional activity of Runx2 (luciferase reporter) [2]: increased
ALP activity [1]: increase

CCC(C)[C@@H]1NC(=O)[C@H]2CCCN2C(=O)[C@H](CCCCCSSCCCCC[C@@H]2NC(=O)[C@H]3CCCN3C(=O)[C@H](C(C)CC)NC(=O)[C@@H](Cc3ccc(OC)cc3)NC2=O)NC(=O)[C@@H](Cc2ccc(OC)cc2)NC1=O (stereo partly drawn) [SCOP304, cyclo(L-Am7 (−)-D-Tyr(Me)-L-Ile-D-Pro)dimer] (I: cyclo([Ile(3ξ)][dP][hNle(7-SH)][dY](Me)) / II: cyclo([Ile(3ξ)][dY](Me)[hNle(7-SH)][dP]); disulfide I:3-II:3)
Runx2 acetylation (Runx2): increased
transcriptional activity of Runx2 (luciferase reporter) [2]: increased
ALP activity [1]: increase
OC promoter activation over the activation observed for Runx2 alone (OC promoter): 2-4 fold
bone formation [3]: remarkably enhanced

CC(/C=C/C(=O)NO)=C\[C@@H](C)C(=O)c1ccc(N(C)C)cc1 [TSA, 2,4-heptadieneamide, 7-[4-(dimethylamino)phenyl]-N-hydroxy-4,6-dimethyl-7-oxo-, (2E,4E,6R)-]
ALP activity [1]: increase

O=C(CCCCCCC(=O)Nc1ccc([C@H]2O[C@@H](CSc3nc(-c4ccccc4)c(-c4ccccc4)o3)C[C@@H](c3ccc(CO)cc3)O2)cc1)NO [Tubacin]
transcriptional activity of Runx2 (luciferase reporter) [2]: increased

Oxamflatin
Runx2 acetylation (Runx2): increased
transcriptional activity of Runx2 (luciferase reporter) [2]: increased
ALP activity [1]: increase

cyclo(-L-Am7-D-Tyr(Me)-L-Ile-D-Pro-) [SCOP152]
Runx2 acetylation (Runx2): increased
transcriptional activity of Runx2 (luciferase reporter) [2]: increased
ALP activity [1]: increase

cyclo(-L-Asu(NHOH)-D-Tyr(Me)-L-Ile-D-Pro-) [CHAP31]
transcriptional activity of Runx2 (luciferase reporter) [2]: increased
